Assay results reported in patent publication US20100280046A1, “Methods and Compositions for Treating Prostate Cancer, Benign Prostatic Hypertrophy, Polycystic Ovary Syndrome and Other Conditions” (DIOBEX, INC., priority 2006, published 2010).
Entries after “also recorded” stand apart in the source; their conditions may differ.

Experiments:
[1] = ketoconazole treated patients; cited from earlier work
[2] = accelerated in the presence of water and elevated temperatures; cited from earlier work
17,20 lyase = details: cited from earlier work
[3] = isolated guinea pig hearts; cited from earlier work
plasma testosterone [4] = experiment: Plasma testosterone in rats four hours after oral gavage of increasing dosage (FIG. 1); assay type: in vivo; details: Sprague-Dawley rats, in olive oil
Procedure: The concentration of testosterone in the plasma of Sprague-Dawley rats was determined four hours after delivery by oral gavage of increasing dosage of the racemate or of the indicated enantiomer.
The effect of ketoconazole and the ketoconazole enantiomers on testosterone levels in the plasma of Sprague Dawley rats was determined. […] To generate the results shown in FIG. 1, fifteen groups (ten per group) of rats were used. The rats were maintained on a 14/10 hour light/dark cycle and allowed free access to food and water. Each rat was dosed with the indicated drug (or vehicle) at the indicated dosage via a gastric tube. All of the rats were dosed between 2.00 and 3.00 pm and were sacrificed four hours later (between 6.00 and 7.00 pm). Plasma was prepared and the concentration of testosterone determined by an enzyme linked immuno assay (ELISA).

plasma testosterone [5] = experiment: Time course of depression of plasma testosterone in rats after 200 mg/kg (FIG. 2); assay type: in vivo; details: Sprague-Dawley rats, 200 mg/kg oral gavage, indicated times after dosing
Procedure: The rats were maintained and dosed as described above. Plasma was prepared at the indicated times after dosing and the concentration of testosterone in the plasma determined by ELISA.

17α hydroxylase = target: T1, 17α hydroxylase (Homo sapiens, UniProt P05093); details: cited from earlier work
T1 sequence (P05093 1-508): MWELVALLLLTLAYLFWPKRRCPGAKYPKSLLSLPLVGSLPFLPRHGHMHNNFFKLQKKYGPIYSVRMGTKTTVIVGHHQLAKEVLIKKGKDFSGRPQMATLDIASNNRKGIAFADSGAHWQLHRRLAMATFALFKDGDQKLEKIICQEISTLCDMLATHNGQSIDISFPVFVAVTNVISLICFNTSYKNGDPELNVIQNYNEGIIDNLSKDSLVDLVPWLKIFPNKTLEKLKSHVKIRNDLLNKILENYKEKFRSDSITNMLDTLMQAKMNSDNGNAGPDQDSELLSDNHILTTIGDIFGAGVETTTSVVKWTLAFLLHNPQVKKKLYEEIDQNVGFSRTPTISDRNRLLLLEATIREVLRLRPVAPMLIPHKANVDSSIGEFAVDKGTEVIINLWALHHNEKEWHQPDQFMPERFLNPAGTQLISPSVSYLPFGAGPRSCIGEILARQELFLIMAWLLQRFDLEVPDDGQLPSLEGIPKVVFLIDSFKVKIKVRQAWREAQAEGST

[6] = Plasma levels of the two ketoconazole enantiomers in patients after fourteen daily doses (FIG. 4, FIG. 5); assay type: in vivo, humans; details: for hepatic extraction (from the plasma into the liver): inferred from plasma profiles in patients; for plasma level (pharmacokinetic profile) of the enantiomer after racemic ketoconazole: 400 mg racemic ketoconazole (200 mg 2S,4R and 200 mg 2R,4S) once per day
Procedure: Each patient was given the appropriate drug once per day in the evening. After fourteen daily doses the level of each of the two enantiomers present in the plasma of the patients was determined at the indicated time points following the last dose of drug.
Assays were established and validated using isolated and purified enantiomers. […] Solid phase extraction (SPE) and HPLC/MS/MS were used to determine the concentration of the enantiomers 2R,4S and 2S,4R, of Ketoconzaole from human plasma. 2R,4S and 2S,4R Ketoconzaole were extracted from the plasma sample using SPE, 96 well plates packed with a reversed phase C8 extraction beds from Varian (Lake Forest, Calif.). An aliquot of the extract was injected onto a HPLC/MS/MS triple quadrupole mass spectrometer (Sciex API3000). A Chiralpak AD-H, 5 μm HPLC column (2.1×150 mm) from Chiral Technologies (West Chester, Pa.) preceded by an AD-H guard column (0.4×1.0 cm) were used to separate 2R,4S and 2S,4R Ketoconzaole and the internal standard terconazole. The peak area of multiple product ions (531.4→82.2, […], and 531.4→489.5) of the enantiomers of Ketoconzaole were summed and measured against the peak area of the product ion of the internal standard (terconazole, 534.5-÷ 219.3). Quantitation was performed using 1/x^2 weighted linear least squares regression line generated from similarly extracted plasma calibration samples ranging from 5 to 1000 ng/mL. All plasma was preserved with K3EDTA.

[7] = oral racemic ketoconazole, healthy subjects; cited from earlier work
[8] = patients, after fourteen daily doses

Structure (SMILES)	level of liver specific enzymes in the serum [1]	degradation (oxidation) [2]	potency toward 17,20 lyase (17,20 lyase)	risk of cardiac arrhythmia [3]	lowering of plasma testosterone (plasma testosterone [4])	time course of depression of plasma testosterone (plasma testosterone [5])	inhibition of 17α hydroxylase (17α hydroxylase)	hepatic extraction (from the plasma into the liver) [6]	plasma level (pharmacokinetic profile) of the enantiomer after racemic ketoconazole [6, 8]	plasma level of the enantiomer after racemic ketoconazole [7]	time course of depression of plasma testosterone (plasma testosterone [5]; 200 mg/kg)	time course of depression of plasma testosterone (plasma testosterone [5]; listed as 2S,4R, 200 mg/kg)	plasma level (pharmacokinetic profile) of the 2S,4R enantiomer given alone ([6]; patients, 200 mg 2S,4R enantiomer once per day, after fourteen daily doses)
CC(=O)N1CCN(c2ccc(OCC3COC(Cn4ccnc4)(c4ccc(Cl)cc4Cl)O3)cc2)CC1 (racemic) [racemic ketoconazole, 1-acetyl-4-[4-[[2-(2,4-dichlorophenyl)-2-[(1H-imidazol-1-yl)-methyl]-1,3-dioxolan-4-yl]methoxy]phenyl]piperazine]	increase in these enzymes has been noted	can undergo degradation (oxidation)	inhibit	may be associated with an increased risk of cardiac arrhythmia	dose dependent effect	testosterone levels recover following dosing	inhibit	–	–	–	–	–	–
CC(=O)N1CCN(c2ccc(OC[C@H]3CO[C@](Cn4ccnc4)(c4ccc(Cl)cc4Cl)O3)cc2)CC1 (single isomer, unassigned) [2R,4S enantiomer, reference compound]	–	–	–	–	–	–	–	more efficient extraction	approximately one third of the plasma concentration of the 2S,4R enantiomer	–	–	–	–
CC(=O)N1CCN(c2ccc(OC[C@@H]3CO[C@@](Cn4ccnc4)(c4ccc(Cl)cc4Cl)O3)cc2)CC1 [2S,4R enantiomer]	–	–	more potent toward 17,20 lyase than is the other enantiomer 2R,4S	–	more effective at lowering testosterone than any either racemic ketoconazole or the 2R,4S enantiomer of ketoconazole; also recorded: significantly more efficacious than both the ketoconazole racemate and the other cis enantiomer (2R,4S)	–	–	relatively low hepatic extraction	significantly greater than the pharmacokinetic profile of the 2R,4S enantiomer	approximately three times greater than that of the 2R,4S enantiomer	more effective at lowering testosterone than either racemic ketoconazole or the other cis enantiomer present in racemic ketoconazole (2R,4S)	significantly more efficacious than 2R,4S with respect to reducing testosterone levels	very similar when given alone; also recorded: approximately the same as the plasma level of the 2S,4R enantiomer when patients are given both 200 mg 2S,4R and 200 mg 2R,4S
